Values joined by “and” are separate entries in the source; they are usually repeats but may differ in a detail not shown here. Equal values may be shown once. Read-outs that look alike come from different tables or passages of the source.

Data set [1] can be described thus: Comparative oral versus nasal pharmacokinetics of flurazepam in dogs (plasma, GC assay). Format: in vivo, beagle dogs. As for the experimental part:
The efficacy of oral versus nasal administration was examined using the methodology of Example 2.
Oral Administration Studies: Fifteen mg of flurazepam HCl solution was given to each dog with 50 ml of water. […] The plasma samples were stored frozen until GC assay for flurazepam.
Nasal Administration Studies: One hundred and twenty milligrams of flurazepam HCl powder was dissolved in 4 ml of distilled water. […] Air bubbles generated during mixing were eliminated by centrifugation. The pH of the solution was 1.82.
Flurazepam solution was sprayed into both nostrils of the dogs. The dose given to the dogs was 14.5, 12.4, 12.1 and 12.5 mg as flurazepam HCl. Blood sampling times were same as in the oral study. The plasma samples were frozen until GC assay for flurazepam.
Five ml of hexane was then added and the mixture was vortexed together for one min. and centrifuged for 4 minutes. Four ml of the upper organic layer was then pipetted. Fifty μl of hexane/isoamyl alcohol was used for reconstitution.
Flurazepam in plasma was assayed by a Hewlett Packard model 5830A GC-EC. […] The temperatures for column, injector port and detector were 250°, 310° and 310° C., respectively. The flow rate for argon/methane (95:5) gas was 33 ml/min.

For another data set, the system named is Wistar rats. In words: Oral versus nasal hypnotic efficacy in rats (duration of sleeping time, loss and reappearance of the righting reflex). The data set is classed as in vivo. As for the experimental part: A variety of hypnotics including chloral hydrate, sodium pentobarbital and flurazepam were administered to Wistar rats to compare the efficacy of oral and nasal administration.
Oral Administration Studies: The subjects were fasted for approximately 18 hours; water was available ab libitum. Aqueous solutions of chloral hydrate obtained from Sigma Chemical Co., Ltd. and sodium pentobarbital were separately administered to groups of the subject rats using a constant dose volume of […]. Different dosage levels were obtained by varying the aqueous concentrations of therapeutic drug to identify an effective amount of hypnotic.
The animals were then placed in a constant temperature environment of 32° C. The duration of sleeping time (measured by the loss and reappearance of the righting reflex) was recorded for each animal. The results within each group were then averaged.
Nasal Administration Studies: The methodology of the oral studies was repeated with substitution of nasal administration of aqueous solutions through a fine catheter inserted into the nostril. The therapeutic drug was dosed at a constant volume of 50 μl which would deliver an amount of the hypnotic which would be orally effective.

Setting [2] is: nasal spray, 12.1-14.5 mg as HCl, individual dog.

As a reminder, the Tmax is the time from dosing to the highest level. For orientation: Cmax means the highest concentration seen after dosing. Regarding `CCN(CC)CCN1C(=O)CN=C(c2ccccc2F)c2cc(Cl)ccc21` [flurazepam], the Tmax in data set [1] (dog, plasma, nasal spray, 12.1-14.5 mg as HCl, individual dog, read-out: TMAX NASAL (converted)) is 15 min; in data set [1] (dog, plasma, nasal spray, 12.1-14.5 mg as HCl, mean of four dogs, read-out: TMAX NASAL (MEAN) (converted)), 15 min; in data set [1] (dog, plasma, po, 15 mg, oral, 15 mg flurazepam HCl, mean of four dogs, read-out: TMAX PO (MEAN) (converted)) it was 26.3 min. Besides, the Cmax in data set [1] (dog, plasma, nasal spray, 12.1-14.5 mg as HCl, mean of four dogs, read-out: CMAX NASAL (MEAN)) stood at 73.3 ng/mL; in data set [1] (dog, plasma, po, 15 mg, oral, 15 mg flurazepam HCl, mean of four dogs, head marked *, read-out: CMAX PO (MEAN)), 4.97 ng/mL. Moreover, the half-life in data set [1] (dog, plasma, nasal spray, 12.1-14.5 mg as HCl, mean of four dogs, read-out: T1/2 NASAL (MEAN)) was 168 min. Besides, the “Tmax after nasal administration relative to oral route” value in data set [1] (dogs, nasal vs oral) is on record as “half that of oral route”. The “Plasma levels after nasal administration compared with oral” value in data set [1] (dogs, nasal vs oral, dose-corrected, FIG. 3) is “consistently higher”. For the same molecule, in data set [1] (dogs, nasal vs oral, dose-normalized), the “Mean increase in AUC after nasal administration” value was 51 fold. Further, the “Cmax after oral administration lower than that of nasal route” value in data set [1] (dogs, oral vs nasal) came to 15 times. Further, the “AUC NASAL” value in data set [1] (nasal spray, 12.1-14.5 mg as HCl, dose-normalized, individual dog) is 922.3 ngmin/ml-mg and 384.9 ngmin/ml-mg and 287.4 ngmin/ml-mg and 314.9 ngmin/ml-mg. Moreover, the “AUC NASAL (MEAN)” value in data set [1] (nasal spray, 12.1-14.5 mg as HCl, dose-normalized, mean of four dogs) came out at 477.4 ngmin/ml-mg. Moreover, in data set [1] (setting [2]), the “CMAX NASAL” value is 161.5 ng/mL and 41.1 ng/mL and 31.5 ng/mL and 59.0 ng/mL. In data set [1] (setting [2]), the “T1/2 NASAL” value is 214.7 min and 190.8 min and 163.3 min and 102.6 min. The “AUC PO” value in data set [1] (oral, 15 mg flurazepam HCl, dose-normalized, estimated up to last data point, individual dog) was 8.60 ngmin/ml-mg and 19.30 ngmin/ml-mg and 4.81 ngmin/ml-mg and 20.00 ngmin/ml-mg. Further, the “AUC PO (MEAN)” value in data set [1] (oral, 15 mg flurazepam HCl, dose-normalized, estimated up to last data point, mean of four dogs) was 13.20 ngmin/ml-mg. Also, the “TMAX PO” value in data set [1] (oral, 15 mg flurazepam HCl, individual dog) was 45.0 min and 30.0 min. The “Hypnotic efficacy by oral administration” value with Wistar rats was “the rats proved resistant”.
